Experimental data from PubChem BioAssay AID179 (DTP/NCI, 2004).
The source made the active and inactive calls.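 The calls were made as follows: active = compounds giving half or more protection of infected cells from virus-caused growth loss, again on retest; inactive = the rest.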 Where a SMILES comes first, the peptide text is derived from it. The star is where a group is joined. Cbz = O=C(OCc1ccccc1)*; NHNH2 = NN*

Tested on: CEM cells HIV-1 protection, formazan growth assay
Test: NCI AIDS Antiviral Assay
Details: for IC50: measured here: growth of uninfected CEM cells
In short: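 Screen of anti-HIV-1 activity in human CEM cells using a formazan-based growth measurement at five drug concentrations. Hits with 50% or greater protection were repeated, and confirmation required reproducible complete protection.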

Structure (SMILES)	EC50 [µM]	IC50 [µM]	outcome
NNC(=O)C(CCC(=O)O)NC(=O)C(CCC(=O)O)NC(=O)C(CCC(=O)O)NC(=O)CNC(=O)CNC(=O)OCc1ccccc1 (configuration not stated) (Cbz-GGEEE-NHNH2; configuration not given here)	> 200	> 200	
COc1ccc(C2=NNC(=O)OC2c2ccccc2)cc1 (configuration not stated)	> 63.1	7.24	
Cc1c2oc(=O)c(C#N)cc2c2ccccn12	> 200	> 200	
CC1(C)OCN(c2ccc(Cl)cc2)Cn2c1nc1ccccc12	> 200	28.8	
CN(NC(=O)c1ccco1)C1=NCCN1	> 200	> 200	
CCOC(=O)[C@@]12C(C)=CC(=O)O[C@]1(C)C[C@H]2C#N	> 1000	> 1000	
Cc1ccccc1-n1c(=S)[nH]c2c(sc(=O)n2-c2ccccc2C)c1=O	> 3.8	> 3.8	
COP(=O)(CC(=O)CCCCCOC1CCCCO1)OC (configuration not stated)			inactive
Cc1cc(=O)n2nc(SCc3ccccc3)sc2n1	> 200	81.3	
C=CCn1c(N)c(C#N)c(C#N)c1CCC	> 200	> 200	
Cc1cccc(N2CCN(S(=O)(=O)c3ccc(Cl)cc3)C2=N)c1C	> 200	> 200	
CCOC(=O)/C(=C/N1C(=O)/C(=C/c2cccc([N+](=O)[O-])c2)SC1=S)C(=O)c1ccccc1	> 200	18.6	
N#CC1=C(N)N(c2ccccc2)C(c2ccccc2)C1(C#N)C#N (configuration not stated)	> 200	14.1	
CN1CC(C)(C)C(O)c2ccccc21 (configuration not stated)	> 955	525	
OC1(c2ccccc2)Oc2ccccc2C(c2ccccc2)C1c1ccccc1 (configuration not stated)	> 200	9.55	
COc1cc(N)c2[nH]c3c(C)ccc(C)c3c2c1	> 30.2	> 30.2	
CC(=O)SCCC1c2[nH]c3ccccc3c2CCN1O (configuration not stated)			inactive
COc1ccc(C(=O)C(c2ccc(OC)cc2)C2C(=O)Oc3ccccc32)cc1 (configuration not stated)	> 34.7	> 34.7	
COc1cc(C=O)c(-c2c(C=O)ccc3c2OCO3)c(OC)c1OC	> 135	20	
Cc1ccc2ccc3c(-c4ccccc4)cc(C)nc3c2n1.Cc1ccc2ccc3c(-c4ccccc4)cc(C)nc3c2n1.O=C1OC(C(O)C[O-])C(O)=C1O.[Cu+]	> 12.6	0.55	
COC(=O)C1=C(C(=O)OC)SC(=C2SC3=C(SC(=C4SCCS4)S3)S2)S1	> 100	> 100	
O=C(C(/C=N/C(=S)NCc1ccccc1)=C(/O)c1ccccc1)c1ccccc1	> 200	30.9	
N#CC(C#N)[C@@H]1CCC=C(Sc2ccccc2)[C@H]1Sc1ccccc1	> 20	3.63	

Structure (SMILES)	EC50 [µM]	IC50 [µM]	outcome
C1CN(C23OC4(N5CCOCC5)C5C6CC(C7C6C4C72)C53)CCO1 (configuration not stated)	> 200	> 200	
COC(=O)C1C2CC3C(C2=O)C31 (configuration not stated)	> 200	> 200	
O=C(/C=C/c1ccco1)c1ccc(NCc2nc3ccccc3[nH]2)cc1	> 20.9	> 20.9	
Cc1ccc(S(=O)(=O)NC(=O)C2S(=O)(=O)OCCOS2(=O)=O)cc1	> 3890	77.6	
CCC[CH2][Sn]1([CH2]CCC)[O]C(=O)c2cc(C)ccc2[O]1	> 9.33	3.09	
O=P1(Oc2ccccc2)NCc2ncccc2O1 (configuration not stated)	> 200	> 200	
COC(=O)CC[N+]1=CCC(c2ccccc2)(c2ccccc2)O1	> 115	69.2	
COc1ccc2oc3cc(O)cc(OC)c3c(=O)c2c1O	> 200	145	
O=C(Cc1ccccc1)NN1C(=O)C(Cl)C1c1cc(Br)cc(Br)c1O (configuration not stated)	> 20.4	11.5	
COc1nc(N2CCNCC2)nc2c1CCCC2			inactive
Cn1c2ccccc2[n+]2c(N)scc12	> 200	39.8	
Cc1cccc(/C=N/NC(=S)Nc2ccc(Cl)cc2)n1	> 200	3.16	
CC1(C)COC(c2cccnc2/C=N/O)=N1	> 1150	> 200	
CCOc1ccc(N=C(NC(=O)c2ccccc2)SC)cc1	> 22.4	> 22.4	
CN1C(=O)CN(NC(=O)C2=C(O)c3ccc(Br)cc3S(=O)(=O)N2)C1=S	> 200	51.3	
CCCCCCOC(=O)c1ccc(NC(=O)CN(CC)CC)cc1	> 200	37.2	
O=S(=O)(CC#CCO)c1ccccc1			inactive
Cc1cc2c(cc1C)C(=O)C(=O)N2	> 148	> 148	
O=c1c2ccccc2[nH]c2c(O)ccc(O)c12			inactive
C=C(NC(=O)C(=C)NC(=O)c1csc(C2=NC3c4csc(n4)C4NC(=O)c5csc(n5)C(C(C)(O)C(C)O)NC(=O)C5CSC(=N5)/C(=C/C)NC(=O)C(C(C)O)NC(=O)c5csc(n5)C3(CC2)NC(=O)C(C)NC(=O)C(=C)NC(=O)C(C)NC(=O)C(C(C)CC)NC2C=Cc3c(C(C)O)cc(nc3C2O)C(=O)OC4C)n1)C(N)=O (configuration not stated)	8.91	43.7	
CSC1=NC=C(C#N)C2=NC(c3cccs3)NN12 (configuration not stated)	> 339	20.4	
CC(=O)Nc1ccc(S(=O)(=O)N/N=C/C(=O)O)cc1	> 200	> 200	
CC(=O)Nc1ncc(Sc2ccc([N+](=O)[O-])cc2)s1	> 200	> 200	

Structure (SMILES)	EC50 [µM]	IC50 [µM]	outcome
COC(=O)c1ccccc1/C=C1\Cc2ccc(C)c(C)c2C1=O	> 200	> 200	
c1ccc2c(c1)[nH]c1c2nc2ncccn21			inactive
CCOc1ccc(N=Nc2c(-c3ccccc3)nn(C(=O)CC(=O)Nc3cccc(C)c3)c2-c2ccccc2)cc1	> 47.9	> 47.9	
CCCc1c(O)nc(Nc2nc3ccccc3[nH]2)[nH]c1=O	> 200	63.1	
CCCCCCn1c(SCC)c2ccccc2c1-c1nc(F)nc(F)n1	> 2.75	> 2.75	
Cc1ccc(NC(=O)/C(CC(=O)c2sc(Nc3ccccc3Cl)nc2C)=N\Nc2ccc([N+](=O)[O-])cc2[N+](=O)[O-])c(C)c1	> 200	97.7	
CC1=NN2C(=O)C(C)SC2=NC(C)(C)C1 (configuration not stated)	> 1120	> 1120	
OCC1OC(n2cnc3cncnc32)C(O)C1O (configuration not stated)			inactive
CC(NCc1c(O)ccc2ccc(=O)oc12)C(=O)O (configuration not stated)	> 200	> 200	
S=C(SSC(=S)C1CCCC1=NC1CCCCC1)C1CCCC1=NC1CCCCC1 (configuration not stated)	> 200	151	
O=C1NC(O)c2cccc([N+](=O)[O-])c2O1 (configuration not stated)	> 200	61.7	
COc1ccc(N2C(=O)C3c4[nH]c5ccc(F)cc5c4C4CCC(C(C)(C)C)CC4C3C2=O)cc1 (configuration not stated)	> 200	22.4	
O=Nc1[nH]c(O)c2ccccc12	> 200	> 200	
O=S(=O)(O)c1cc(N=Nc2ccc(O)cc2)ccc1/C=C/c1ccc(N=Nc2ccc(O)cc2)cc1S(=O)(=O)O	> 50.1	45.7	
CCCCN1C(=O)C(=O)N(c2ccccc2C(F)(F)F)C1=O	> 200	158	
NC(Cc1ccc2nc3c4ccccc4c(=O)cc-3oc2c1)C(=O)O (configuration not stated)	> 200	34.7	
O=c1ccc2cc(Cl)ccc2o1	> 75.9	> 75.9	
CCC1Sc2cc(OC)cc3[nH]c(=S)n(c23)C1=O (configuration not stated)	126	148	
Cc1cc(C)n(-c2nc3ccccc3c(=O)n2-c2ccccc2)n1	> 200	> 200	
Cc1cc(C)c(NS(=O)c2cccc(Cl)c2)c(C)c1 (configuration not stated)	> 123	> 123	
Nc1c(C(=O)Nc2ccccc2)[n+]([O-])c2ccccc2[n+]1[O-]			inactive
C=CC(C)(C)c1cccc2[nH]c3c(c12)CC1CCC2(O)C4=CC(=O)C5OC4(CCC2(C)[C@@]31C)OC5(C)C (some centres not stated)			inactive
COc1ccc(OC)c(CSc2ccc(OC)c(OC)c2)c1	> 200	85.1	

Structure (SMILES)	EC50 [µM]	IC50 [µM]	outcome
CCN1CCC(C)OP1(=O)Cc1ccccc1 (configuration not stated)	> 200	> 200	
O=C1c2c(ccc3c2CCC3)CC1Cc1ccc2c(c1)CCC2 (configuration not stated)	> 200	35.5	
O=C1CCc2ccc3c(c21)CC1(Cc2ccccc2C1)C3	> 200	> 200	
Nc1cc(F)ccc1CC(=O)O	> 200	> 200	
CN1CCC(OC(c2ccccc2)c2ccc(Cl)cc2)C1 (configuration not stated)			inactive
Cn1cnc([N+](=O)[O-])c1Sc1nnc(C(F)(F)F)n1C	> 813	4.27	
CN1c2ccccc2C2=C(c3ccccc3)CC[C@@H](C(=O)N3C4CC5CC[C@@]4(CS3(=O)=O)C5(C)C)[C@@H]21 (some centres not stated)	> 200	129	
Cc1ccc(S(=O)(=O)NCCN(CCNS(=O)(=O)c2ccc(C)cc2)S(=O)(=O)c2ccc(C)cc2)cc1	> 200	> 200	
O=C1CSC(c2ccc([N+](=O)[O-])cc2)N1c1ccc(-n2c(-c3ccccc3)nc3ccccc3c2=O)cc1 (configuration not stated)	> 200	129	
Clc1ccc(OCc2nnc3n2N=C(c2ccccc2)CS3)c(Cl)c1			inactive
O=c1[nH]cnc2c1sc1nc3ccccc3n12	> 200	141	
COC(=O)C1=C(C(=O)OC)C(N(C)C)C(C(=O)OC)=C(C(=O)OC)S1	> 200	> 200	
O=Cc1ccc2c(c1I)OCO2	> 67.6	38.9	
COc1ccc2c(c1)[n+]([O-])c(S(=O)(=O)c1ccc(C)cc1)c(N)[n+]2[O-]			inactive
Cc1cn(C2CC(COCc3ccccc3)N(CCO[Si](C)(C)C(C)(C)C)O2)c(=O)[nH]c1=O (configuration not stated)	> 200	11.5	
COc1cccc(N2C(Cl)C(=O)C2c2c[nH]c3ccccc23)c1 (configuration not stated)	> 79.4	> 79.4	
COc1ccc(NC(=S)N/N=C/c2cccc(C)n2)cc1	> 200	4.9	
Cc1cn(C2CC(Sc3cn[nH]n3)C(CO)O2)c(=O)[nH]c1=O (configuration not stated)	> 380	75.9	
N.N.N.N.N.N.O=N[O-].[Br-].[Co+3].[Co+3].[OH3+].[OH3+]			inactive
N=C(CN1CCCCC1)N1CCCCC1	> 200	> 200	
COc1ccc2nc3ccccc3c(NCCCCN(C)CCCl)c2c1	> 2	0.151	
